From PubChem BioAssay (NCI)
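Results reflect a 48-hour exposure of cells in 96-well plates to compound at five concentrations. GI50 is the concentration that inhibits growth by half. Definition used: TGI = concentration required for complete inhibition of growth.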 *1 amine or outer side, *2 acyl side, *3 side chain or, on linkers, in order; H or OH if unused. Where a SMILES comes first, the peptide text is derived from it. [ ]: non-standard residue; d: D form. The star is where a group is joined. X11 = C/C=C/CC(C)C(O)[C@H](N[*:1])C(=O)[*:2]; Decanoyl = CCCCCCCCCC(=O)*; Leu(ol) = CC(C)C[C@H](N)CO; Aib = CC(C)(N)C(=O)O

What was measured:
Assay in all cases: inhibition of tumour cell growth, NCI panel, 48 h
[1] = tested on: 786-0 renal
[2] = tested on: A498 renal
[3] = tested on: A549 NSCLC
[4] = tested on: ACHN renal
[5] = tested on: BT-549 breast
[6] = tested on: CAKI-1 renal
[7] = tested on: CCRF-CEM leukemia
[8] = tested on: COLO 205 colon
[9] = tested on: DU-145 prostate
[10] = tested on: EKVX NSCLC
[11] = tested on: HCC-2998 colon
[12] = tested on: HCT-116 colon
[13] = tested on: HCT-15 colon
[14] = tested on: HL-60(TB) leukemia
[15] = tested on: HOP-62 NSCLC
[16] = tested on: HOP-92 NSCLC
[17] = tested on: HS 578T breast
[18] = tested on: HT29 colon
[19] = tested on: IGROV1 ovarian
[20] = tested on: K-562 leukemia
[21] = tested on: KM12 colon
[22] = tested on: LOX IMVI melanoma
[23] = tested on: M14 melanoma
[24] = tested on: MALME-3M melanoma
[25] = tested on: MCF7 breast
[26] = tested on: MDA-MB-231 breast
[27] = tested on: MDA-MB-435
[28] = tested on: MOLT-4 leukemia
[29] = tested on: NCI-H226 lung
[30] = tested on: NCI-H23 lung
[31] = tested on: NCI-H460 lung
[32] = tested on: NCI-H522 lung
[33] = tested on: NCI/ADR-RES ovarian
[34] = tested on: OVCAR-3 ovarian
[35] = tested on: OVCAR-4 ovarian
[36] = tested on: OVCAR-5 ovarian
[37] = tested on: OVCAR-8 ovarian
[38] = tested on: PC-3 prostate
[39] = tested on: RPMI-8226 leukemia
[40] = tested on: RXF 393 renal
[41] = tested on: SF-268 CNS
[42] = tested on: SF-295 CNS
[43] = tested on: SF-539 CNS
[44] = tested on: SK-MEL-2 melanoma
[45] = tested on: SK-MEL-28 melanoma
[46] = tested on: SK-MEL-5 melanoma
[47] = tested on: SK-OV-3 ovarian
[48] = tested on: SN12C renal
[49] = tested on: SNB-19 CNS
[50] = tested on: SNB-75 CNS
[51] = tested on: SR leukemia
[52] = tested on: SW-620 colon
[53] = tested on: T-47D breast
[54] = tested on: TK-10 renal
[55] = tested on: U251 CNS
[56] = tested on: UACC-257 melanoma
[57] = tested on: UACC-62 melanoma
[58] = tested on: UO-31 renal

## CN1CCN(Cc2ccc(NC(=O)c3cncc(C#Cc4cnc5ccc(N)nn45)c3)cc2C(F)(F)F)CC1
[1]
  GI50: 2080 nM
  TGI: 6220 nM
[2]
  GI50: 2720 nM
  TGI: 10600 nM
[3]
  GI50: 1620 nM
  TGI: 5890 nM
[4]
  GI50: 2440 nM
  TGI: 8150 nM
[5]
  GI50: 2070 nM
  TGI: 6050 nM
[6]
  GI50: 1570 nM
  TGI: 5830 nM
[7]
  GI50: 240 nM
  TGI: 50000 nM
[8]
  GI50: 348 nM
  TGI: 1350 nM
[9]
  GI50: 1390 nM
  TGI: 5730 nM
[10]
  GI50: 2630 nM
  TGI: 13300 nM
[11]
  GI50: 1180 nM
  TGI: 5650 nM
[12]
  GI50: 233 nM
  TGI: 2890 nM
[13]
  GI50: 1990 nM
  TGI: 12200 nM
[14]
  GI50: 306 nM
  TGI: 1550 nM
[15]
  GI50: 1020 nM
  TGI: 3710 nM
[16]
  GI50: 138 nM
  TGI: 538 nM
[17]
  GI50: 804 nM
  TGI: 5300 nM
[18]
  GI50: 444 nM
  TGI: 2280 nM
[19]
  GI50: 1070 nM
  TGI: 4640 nM
[20]
  GI50: 5 nM
  TGI: 18100 nM
[21]
  GI50: 8.16 nM
  TGI: 1070 nM
[22]
  GI50: 510 nM
  TGI: 1280 nM
[23]
  GI50: 690 nM
  TGI: 1570 nM
[24]
  GI50: 496 nM
  TGI: 1520 nM
[25]
  GI50: 284 nM
  TGI: 2370 nM
[26]
  GI50: 352 nM
  TGI: 2610 nM
[27]
  GI50: 674 nM
  TGI: 5780 nM
[28]
  GI50: 369 nM
  TGI: 5810 nM
[29]
  GI50: 214 nM
  TGI: 6120 nM
[30]
  GI50: 777 nM
  TGI: 2860 nM
[31]
  GI50: 526 nM
  TGI: 3290 nM
[32]
  GI50: 234 nM
  TGI: 1270 nM
[33]
  GI50: 25600 nM
  TGI: 50000 nM
[34]
  GI50: 1670 nM
  TGI: 12600 nM
[35]
  GI50: 1580 nM
  TGI: 16800 nM
[36]
  GI50: 1410 nM
  TGI: 9400 nM
[37]
  GI50: 1290 nM
  TGI: 5390 nM
[38]
  GI50: 1330 nM
  TGI: 10800 nM
[39]
  GI50: 1490 nM
  TGI: 5090 nM
[40]
  GI50: 842 nM
  TGI: 1780 nM
[41]
  GI50: 867 nM
  TGI: 3460 nM
[42]
  GI50: 2850 nM
  TGI: 10900 nM
[43]
  GI50: 288 nM
  TGI: 3260 nM
[44]
  GI50: 591 nM
  TGI: 1940 nM
[45]
  GI50: 954 nM
  TGI: 2180 nM
[46]
  GI50: 3730 nM
  TGI: 10300 nM
[47]
  GI50: 2540 nM
  TGI: 25700 nM
[48]
  GI50: 850 nM
  TGI: 4480 nM
[49]
  GI50: 1680 nM
  TGI: 15300 nM
[50]
  GI50: 593 nM
  TGI: 3180 nM
[51]
  GI50: 264 nM
  TGI: 2240 nM
[52]
  GI50: 356 nM
  TGI: 3110 nM
[53]
  GI50: 2570 nM
  TGI: 23900 nM
[54]
  GI50: 1290 nM
  TGI: 2650 nM
[55]
  GI50: 1300 nM
  TGI: 6980 nM
[56]
  GI50: 1070 nM
  TGI: 3340 nM
[57]
  GI50: 1360 nM
  TGI: 5050 nM
[58]
  GI50: 5050 nM
  TGI: 12900 nM

## C/C=C/CC(C)C(O)[C@H](NC(=O)[C@@H]1CCCN1C(=O)C(C)(C)NC(=O)CCCCCCCCC)C(=O)NC(C)(C)C(=O)N[C@@H](CCC(N)=O)C(=O)N[C@H](CCC(N)=O)C(=O)NC(C)(C)C(=O)NC(C)(C)C(=O)N[C@@H](CCC(N)=O)C(=O)N[C@H](CC(C)C)C(=O)N[C@H](CO)CC(C)C (stereo partly drawn) (Decanoyl-[Aib]P[X11][Aib]Q[dQ][Aib][Aib]Q[dL][Leu(ol)])
[1]
  GI50: 1760 nM
  TGI: 3330 nM
[2]
  GI50: 1990 nM
  TGI: 4070 nM
[3]
  GI50: 2280 nM
[4]
  GI50: 2500 nM
  TGI: 7430 nM
[5]
  GI50: 1840 nM
  TGI: 3370 nM
[6]
  GI50: 2210 nM
  TGI: 6090 nM
[7]
  GI50: 1870 nM
  TGI: 4000 nM
[8]
  GI50: 1610 nM
  TGI: 3330 nM
[9]
  GI50: 1460 nM
  TGI: 2850 nM
[10]
  GI50: 1610 nM
  TGI: 3710 nM
[11]
  GI50: 2130 nM
  TGI: 5250 nM
[12]
  GI50: 2210 nM
  TGI: 5160 nM
[13]
  GI50: 2440 nM
  TGI: 7080 nM
[14]
  GI50: 2200 nM
  TGI: 5220 nM
[15]
  GI50: 1640 nM
  TGI: 3680 nM
[16]
  GI50: 1660 nM
  TGI: 3970 nM
[17]
  GI50: 1540 nM
  TGI: 3280 nM
[18]
  GI50: 2570 nM
[19]
  GI50: 2300 nM
  TGI: 7230 nM
[20]
  GI50: 1660 nM
  TGI: 4850 nM
[21]
  GI50: 1840 nM
  TGI: 3680 nM
[22]
  GI50: 1720 nM
  TGI: 3450 nM
[23]
  GI50: 1690 nM
  TGI: 3350 nM
[24]
  GI50: 1400 nM
  TGI: 2760 nM
[25]
  GI50: 1630 nM
  TGI: 3530 nM
[26]
  GI50: 1630 nM
  TGI: 3100 nM
[27]
  GI50: 1680 nM
  TGI: 3070 nM
[28]
  GI50: 2100 nM
  TGI: 6440 nM
[29]
  GI50: 1640 nM
  TGI: 3970 nM
[30]
  GI50: 2090 nM
  TGI: 5910 nM
[31]
  GI50: 1530 nM
  TGI: 3060 nM
[32]
  GI50: 1670 nM
  TGI: 3400 nM
[33]
  GI50: 2390 nM
  TGI: 6860 nM
[34]
  GI50: 1910 nM
  TGI: 3950 nM
[35]
  GI50: 2950 nM
[36]
  GI50: 1870 nM
  TGI: 3960 nM
[37]
  GI50: 1500 nM
  TGI: 3760 nM
[38]
  GI50: 1140 nM
  TGI: 3180 nM
[39]
  GI50: 1850 nM
  TGI: 4260 nM
[40]
  GI50: 2140 nM
  TGI: 3980 nM
[41]
  GI50: 1750 nM
  TGI: 3700 nM
[42]
  GI50: 1390 nM
  TGI: 2900 nM
[43]
  GI50: 1620 nM
  TGI: 3000 nM
[44]
  GI50: 1860 nM
  TGI: 4220 nM
[45]
  GI50: 1690 nM
  TGI: 3100 nM
[46]
  GI50: 1720 nM
  TGI: 3160 nM
[47]
  GI50: 3110 nM
  TGI: 13300 nM
[48]
  GI50: 1930 nM
  TGI: 5350 nM
[49]
  GI50: 1550 nM
  TGI: 3070 nM
[50]
  GI50: 1740 nM
  TGI: 3220 nM
[51]
  GI50: 1950 nM
  TGI: 8470 nM
[52]
  GI50: 2380 nM
  TGI: 7110 nM
[53]
  GI50: 2090 nM
  TGI: 5670 nM
[54]
  GI50: 2270 nM
  TGI: 5570 nM
[55]
  GI50: 1460 nM
  TGI: 2970 nM
[56]
  GI50: 1540 nM
  TGI: 3090 nM
[57]
  GI50: 1610 nM
  TGI: 3190 nM
[58]
  GI50: 1590 nM
  TGI: 4220 nM
